Tests used:
Assay in all cases: Test C pre/postemergence
Type in all cases: in vivo
[1] = test system: lambsquarters (Chenopodium album); details: for Plant response rating, Lambsquarters: Preemergence; for Plant response rating (scale of 0 to 100), Lambsquarters / Lambsquarters plant response rating: Postemergence; for Lambsquarters plant response rating: scale 0 to 100 (0 no effect, 100 complete control)
Procedure, shortened: (§1)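 Applications: preemergence onto seeded soil and postemergence onto 1- to 4-leaf seedlings, compound carried in non-phytotoxic solvent plus surfactant. Kept in greenhouse 12 to 14 days. Scored visually relative to untreated controls, 0 (no effect) to 100 (complete control).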

[2] = test system: velvetleaf (Abutilon theophrasti); details: for Plant response rating, Velvetleaf: Preemergence; for Plant response rating (scale of 0 to 100), Velvetleaf / Velvetleaf plant response rating: Postemergence; for Velvetleaf plant response rating: scale 0 to 100 (0 no effect, 100 complete control)
Procedure, shortened: as §1

[3] = test system: johnsongrass (Sorghum halepense); details: for Plant response rating, Johnsongrass: Preemergence; for Johnsongrass plant response rating: Postemergence, scale 0 to 100 (0 no effect, 100 complete control)
Procedure, shortened: as §1

[4] = test system: cocklebur (Xanthium strumarium); details: for Plant response rating, Cocklebur: Preemergence; for Plant response rating (scale of 0 to 100), Cocklebur / Cocklebur plant response rating: Postemergence; for Cocklebur plant response rating: scale 0 to 100 (0 no effect, 100 complete control)
Procedure, shortened: as §1

[5] = test system: common (oilseed) sunflower (Helianthus annuus); details: Preemergence
Procedure, shortened: as §1

[6] = test system: eastern black nightshade (Solanum ptycanthum); details: Preemergence
Procedure, shortened: as §1

[7] = test system: goosegrass (Eleusine indica); details: for Plant response rating, Goosegrass: Preemergence; for Plant response rating (scale of 0 to 100), Goosegrass / Goosegrass plant response rating: Postemergence; for Goosegrass plant response rating: scale 0 to 100 (0 no effect, 100 complete control)
Procedure, shortened: as §1

[8] = test system: soybean (Glycine max); details: for Plant response rating, Soybean: Preemergence; for Plant response rating (scale of 0 to 100), Soybean / Soybean plant response rating: Postemergence; for Soybean plant response rating: scale 0 to 100 (0 no effect, 100 complete control)
Procedure, shortened: as §1

[9] = test system: bermudagrass (Cynodon dactylon); details: for Plant response rating, Bermudagrass: Preemergence; for Plant response rating (scale of 0 to 100), Bermudagrass / Bermudagrass plant response rating: Postemergence; for Bermudagrass plant response rating: scale 0 to 100 (0 no effect, 100 complete control)
Procedure, shortened: as §1

[10] = test system: common ragweed (Ambrosia elatior); details: for Plant response rating, Ragweed: Preemergence; for Plant response rating (scale of 0 to 100), Ragweed / Ragweed plant response rating: Postemergence; for Ragweed plant response rating: scale 0 to 100 (0 no effect, 100 complete control)
Procedure, shortened: as §1

[11] = test system: pigweed (Amaranthus retroflexus); details: for Plant response rating, Pigweed: Preemergence; for Plant response rating (scale of 0 to 100), Pigweed / Pigweed plant response rating: Postemergence; for Pigweed plant response rating: scale 0 to 100 (0 no effect, 100 complete control)
Procedure, shortened: as §1

[12] = test system: kochia (Kochia scoparia); details: for Plant response rating, Kochia: Preemergence; for Plant response rating (scale of 0 to 100), Kochia / Kochia plant response rating: Postemergence; for Kochia plant response rating: scale 0 to 100 (0 no effect, 100 complete control)
Procedure, shortened: as §1

[13] = 62 g ai/ha, scale 0 to 100, 0 no effect, 100 complete control
[14] = 16 g ai/ha, scale 0 to 100, 0 no effect, 100 complete control
[15] = 31 g ai/ha, scale 0 to 100, 0 no effect, 100 complete control

## CCOC(=O)Cc1nc(C2CC2)nc(N=CN(C)C)c1Br [Compound 33]
[1]; 250 g ai/ha, scale 0 to 100
  Plant response rating, Lambsquarters: 85
[2]; [13]
  Plant response rating, Velvetleaf: 0
[2]; 125 g ai/ha, scale 0 to 100
  Plant response rating, Velvetleaf: 20
[2]; 250 g ai/ha, scale 0 to 100
  Plant response rating, Velvetleaf: 60
[2]; 500 g ai/ha, scale 0 to 100
  Plant response rating, Velvetleaf: 85
[3]; [13]
  Plant response rating, Johnsongrass: 0
[3]; 125 g ai/ha, scale 0 to 100
  Plant response rating, Johnsongrass: 5
[3]; 250 g ai/ha, scale 0 to 100
  Plant response rating, Johnsongrass: 10
[3]; 500 g ai/ha, scale 0 to 100
  Plant response rating, Johnsongrass: 40
[4]; [13]
  Plant response rating, Cocklebur: 0
[4]; 125 g ai/ha, scale 0 to 100
  Plant response rating, Cocklebur: 0
[4]; 250 g ai/ha, scale 0 to 100
  Plant response rating, Cocklebur: 90
[4]; 500 g ai/ha, scale 0 to 100
  Plant response rating, Cocklebur: 95
[5]; [13]
  Plant response rating, Sunflower: 0
[5]; 125 g ai/ha, scale 0 to 100
  Plant response rating, Sunflower: 70
[5]; 250 g ai/ha, scale 0 to 100
  Plant response rating, Sunflower: 80
[5]; 500 g ai/ha, scale 0 to 100
  Plant response rating, Sunflower: 90
[6]; [13]
  Plant response rating, Nightshade: 0
[6]; 125 g ai/ha, scale 0 to 100
  Plant response rating, Nightshade: 50
[6]; 250 g ai/ha, scale 0 to 100
  Plant response rating, Nightshade: 95
[6]; 500 g ai/ha, scale 0 to 100
  Plant response rating, Nightshade: 100
[7]; [13]
  Plant response rating, Goosegrass: 0
[7]; 125 g ai/ha, scale 0 to 100
  Plant response rating, Goosegrass: 0
[7]; 250 g ai/ha, scale 0 to 100
  Plant response rating, Goosegrass: 0
[7]; 500 g ai/ha, scale 0 to 100
  Plant response rating, Goosegrass: 0
[8]; [13]
  Plant response rating, Soybean: 0
[8]; 125 g ai/ha, scale 0 to 100
  Plant response rating, Soybean: 30
[8]; 250 g ai/ha, scale 0 to 100
  Plant response rating, Soybean: 80
[8]; 500 g ai/ha, scale 0 to 100
  Plant response rating, Soybean: 90
[9]; [13]
  Plant response rating, Bermudagrass: 0
[9]; 125 g ai/ha, scale 0 to 100
  Plant response rating, Bermudagrass: 0
[9]; 250 g ai/ha, scale 0 to 100
  Plant response rating, Bermudagrass: 0
[9]; 500 g ai/ha, scale 0 to 100
  Plant response rating, Bermudagrass: 0
[10]; [13]
  Plant response rating, Ragweed: 0
[10]; 125 g ai/ha, scale 0 to 100
  Plant response rating, Ragweed: 20
[10]; 250 g ai/ha, scale 0 to 100
  Plant response rating, Ragweed: 70
[10]; 500 g ai/ha, scale 0 to 100
  Plant response rating, Ragweed: 90
[11]; [13]
  Plant response rating, Pigweed: 85
[11]; 125 g ai/ha, scale 0 to 100
  Plant response rating, Pigweed: 90
[11]; 250 g ai/ha, scale 0 to 100
  Plant response rating, Pigweed: 90
[11]; 500 g ai/ha, scale 0 to 100
  Plant response rating, Pigweed: 90
[12]; 250 g ai/ha, scale 0 to 100
  Plant response rating, Kochia: 50
[12]; 500 g ai/ha, scale 0 to 100
  Plant response rating, Kochia: 50

## CCOC(=O)C(OC(C)=O)c1nc(C2CC2)nc(N)c1Br (stereo not drawn) [Compound 47]
[1]; 16 g ai/ha
  Plant response rating (scale of 0 to 100), Lambsquarters: 0
[1]; 31 g ai/ha
  Plant response rating (scale of 0 to 100), Lambsquarters: 45
[1]; 62 g ai/ha
  Lambsquarters plant response rating: 70
[1]; 125 g ai/ha
  Lambsquarters plant response rating: 80
[1]; [14]
  Plant response rating, Lambsquarters: 0
[1]; [13]
  Plant response rating, Lambsquarters: 85
[1]; 125 g ai/ha, scale 0 to 100
  Plant response rating, Lambsquarters: 95
[2]; 16 g ai/ha
  Plant response rating (scale of 0 to 100), Velvetleaf: 0
[2]; 31 g ai/ha
  Plant response rating (scale of 0 to 100), Velvetleaf: 0
[2]; 62 g ai/ha
  Velvetleaf plant response rating: 0
[2]; 125 g ai/ha
  Velvetleaf plant response rating: 0
[2]; [14]
  Plant response rating, Velvetleaf: 0
[2]; [15]
  Plant response rating, Velvetleaf: 20
[2]; [13]
  Plant response rating, Velvetleaf: 20
[2]; 125 g ai/ha, scale 0 to 100
  Plant response rating, Velvetleaf: 50
[3]; 62 g ai/ha
  Johnsongrass plant response rating: 0
[3]; 125 g ai/ha
  Johnsongrass plant response rating: 0
[3]; [14]
  Plant response rating, Johnsongrass: 0
[3]; [15]
  Plant response rating, Johnsongrass: 0
[3]; [13]
  Plant response rating, Johnsongrass: 0
[3]; 125 g ai/ha, scale 0 to 100
  Plant response rating, Johnsongrass: 0
[4]; 16 g ai/ha
  Plant response rating (scale of 0 to 100), Cocklebur: 35
[4]; 31 g ai/ha
  Plant response rating (scale of 0 to 100), Cocklebur: 45
[4]; 62 g ai/ha
  Cocklebur plant response rating: 60
[4]; 125 g ai/ha
  Cocklebur plant response rating: 65
[4]; [14]
  Plant response rating, Cocklebur: 0
[4]; [15]
  Plant response rating, Cocklebur: 0
[4]; [13]
  Plant response rating, Cocklebur: 70
[4]; 125 g ai/ha, scale 0 to 100
  Plant response rating, Cocklebur: 75
[5]; [14]
  Plant response rating, Sunflower: 0
[5]; [15]
  Plant response rating, Sunflower: 0
[5]; [13]
  Plant response rating, Sunflower: 20
[5]; 125 g ai/ha, scale 0 to 100
  Plant response rating, Sunflower: 100
[6]; [14]
  Plant response rating, Nightshade: 80
[6]; [15]
  Plant response rating, Nightshade: 85
[6]; [13]
  Plant response rating, Nightshade: 95
[6]; 125 g ai/ha, scale 0 to 100
  Plant response rating, Nightshade: 100
[7]; 16 g ai/ha
  Plant response rating (scale of 0 to 100), Goosegrass: 0
[7]; 31 g ai/ha
  Plant response rating (scale of 0 to 100), Goosegrass: 0
[7]; 62 g ai/ha
  Goosegrass plant response rating: 0
[7]; 125 g ai/ha
  Goosegrass plant response rating: 0
[7]; [14]
  Plant response rating, Goosegrass: 0
[7]; [15]
  Plant response rating, Goosegrass: 45
[7]; [13]
  Plant response rating, Goosegrass: 85
[7]; 125 g ai/ha, scale 0 to 100
  Plant response rating, Goosegrass: 90
[8]; 16 g ai/ha
  Plant response rating (scale of 0 to 100), Soybean: 20
[8]; 31 g ai/ha
  Plant response rating (scale of 0 to 100), Soybean: 40
[8]; 62 g ai/ha
  Soybean plant response rating: 65
[8]; 125 g ai/ha
  Soybean plant response rating: 75
[8]; [14]
  Plant response rating, Soybean: 0
[8]; [15]
  Plant response rating, Soybean: 0
[8]; [13]
  Plant response rating, Soybean: 0
[8]; 125 g ai/ha, scale 0 to 100
  Plant response rating, Soybean: 0
[9]; 16 g ai/ha
  Plant response rating (scale of 0 to 100), Bermudagrass: 0
[9]; 31 g ai/ha
  Plant response rating (scale of 0 to 100), Bermudagrass: 0
[9]; 62 g ai/ha
  Bermudagrass plant response rating: 0
[9]; 125 g ai/ha
  Bermudagrass plant response rating: 15
[9]; [14]
  Plant response rating, Bermudagrass: 0
[9]; [15]
  Plant response rating, Bermudagrass: 0
[9]; [13]
  Plant response rating, Bermudagrass: 0
[9]; 125 g ai/ha, scale 0 to 100
  Plant response rating, Bermudagrass: 95
[10]; 16 g ai/ha
  Plant response rating (scale of 0 to 100), Ragweed: 0
[10]; 31 g ai/ha
  Plant response rating (scale of 0 to 100), Ragweed: 0
[10]; 62 g ai/ha
  Ragweed plant response rating: 40
[10]; 125 g ai/ha
  Ragweed plant response rating: 80
[10]; [14]
  Plant response rating, Ragweed: 0
[10]; [13]
  Plant response rating, Ragweed: 45
[10]; 125 g ai/ha, scale 0 to 100
  Plant response rating, Ragweed: 65
[11]; 16 g ai/ha
  Plant response rating (scale of 0 to 100), Pigweed: 0
[11]; 31 g ai/ha
  Plant response rating (scale of 0 to 100), Pigweed: 15
[11]; 62 g ai/ha
  Pigweed plant response rating: 45
[11]; 125 g ai/ha
  Pigweed plant response rating: 70
[11]; [14]
  Plant response rating, Pigweed: 0
[11]; [15]
  Plant response rating, Pigweed: 80
[11]; [13]
  Plant response rating, Pigweed: 85
[11]; 125 g ai/ha, scale 0 to 100
  Plant response rating, Pigweed: 85
[12]; 16 g ai/ha
  Plant response rating (scale of 0 to 100), Kochia: 0
[12]; 31 g ai/ha
  Plant response rating (scale of 0 to 100), Kochia: 0
[12]; 62 g ai/ha
  Kochia plant response rating: 20
[12]; 125 g ai/ha
  Kochia plant response rating: 100
[12]; [14]
  Plant response rating, Kochia: 0
[12]; [13]
  Plant response rating, Kochia: 0
[12]; 125 g ai/ha, scale 0 to 100
  Plant response rating, Kochia: 100
